This note sets out measurements from ChEMBL document CHEMBL1944623, “Synthesis, characterization and antiamoebic activity of some hydrazone and azole derivatives bearing pyridyl moiety as a promising heterocyclic scaffold” (Eur J Med Chem, 2012).

Experiment [1] has as its system MCF7. In words: Cytotoxicity against human MCF7 cells assessed as cell viability after 48 hrs by MTT assay. The settings on record: MCF7, 48 h. In kind it is cell-based. In general terms: Tetrazolium assays rely on reduction of a dye to a coloured formazan, in cell work by metabolically active cells.
Experiment [2] concerns Entamoeba histolytica. Briefly: Antiameobic activity against Entamoeba histolytica HM-1:IMSS after 72 hrs using trypan blue staining method. Type of experiment: functional, organism-based.

In the case of `Cc1ncc([N+](=O)[O-])n1CCO` [METRONIDAZOLE], the IC50 in experiment [1] is over 250 µM. `S=c1[nH]nc(-c2ccncc2)o1`: the IC50 in experiment [1] was over 250 µM. Further, in experiment [2], the Activity entry is “Dose-dependent effect” and the IC50 was determined as 0.558 µM. Compound `O=C(N/N=C/c1cccc(Cl)c1)c1ccncc1` [N'-(3-CHLOROBENZYLIDENE)ISONICOTINOHYDRAZIDE] returned an IC50 in experiment [2] of 12.1 µM. For the compound `COc1ccc(/C=N/NC(=O)c2ccncc2)cc1`, in experiment [1], the IC50 was over 250 µM. In addition, in experiment [2], the Activity result is “Dose-dependent effect” and the IC50 stood at 0.39 µM. On the same counts, the results for `Cc1ccc(/C=N/NC(=O)c2ccncc2)cc1` [N'-(4-METHYLBENZYLIDENE)ISONICOTINOHYDRAZIDE] are over 250 µM, “Dose-dependent effect” and 0.13 µM. For `Sc1nnc(-c2ccncc2)n1-c1ccccc1`, the IC50 in experiment [1] is over 250 µM. In experiment [2], the Activity result was “Dose-dependent effect” and the IC50 turned out to be 0.16 µM. `c1ccc(Nc2nnc(-c3ccncc3)s2)cc1` gave an IC50 in experiment [2] of 4.43 µM.

As to `O=C(N/N=C/c1ccc([N+](=O)[O-])cc1)c1ccncc1` [N'-(4-NITROBENZYLIDENE)ISONICOTINOHYDRAZIDE], the IC50 in experiment [1] is over 250 µM. Further, in experiment [2], the Activity result was “Dose-dependent effect” and half-maximal inhibition (IC50) was put at 0.37 µM. In experiment [2], `O=C(N/N=C/c1ccccc1O)c1ccncc1` [SALINAZID] came in with an IC50 of 4.14 µM. Still for that read-out and setting: as for `O=C(N/N=C/c1ccccc1)c1ccncc1` [N'-BENZYLIDENE ISONICOTINOHYDRAZIDE], the figure is 3.84 µM; as for `CN(C)c1ccc(/C=N/NC(=O)c2ccncc2)cc1` [N'-(4-DIMETHYLAMINOBENZYLIDENE)ISONICOTINOHYDRAZIDE], 5.55 µM. On the same count and under the same terms, as for `CC(C)c1ccc(/C=N/NC(=O)c2ccncc2)cc1`, the figure is 3.74 µM.

In general, IC50 refers to the point on the concentration scale where inhibition reaches its midpoint.
